The source of these data is patent US20060106085A1, “Methods and compositions using PDE4 modulators for treatment and management of central nervous system injury” (priority 2004, published 2006).

Series [1] concerns TNF-α production from human PBMC. Nature of the series: IL-1β-induced TNF-α production from human PBMC. It is filed as cell-based. The following applies: 50 ng/ml recombinant human IL-1β, 18 hours. As to the method:
During the course of inflammatory diseases, TNF-α production is often stimulated by the cytokine 1L-1β rather than by bacterially derived LPS. 3-(3,4-Dimethoxy-phenyl)-3-(1-oxo-1,3-dihydro-isoindol-2-yl)-propionamide was tested for the ability to inhibit IL-1β-induced TNF-α production from human PBMC as described above for LPS-induced TNF-α production, except that the PBMC are isolated from source leukocyte units (Sera-Tec Biologicals, North Brunswick, N.J., USA) by centrifugation on Ficoll-Paque Plus (Amersham Pharmacia, Piscataway, N.J., USA), plated in 96-well tissue culture plates at 3×10^5 cells/well in RPMI-1640 medium (BioWhittaker, Walkersville, Md., USA) containing 10% heat-inactivated fetal bovine serum (Hyclone), 2 mM L-glutamine, 100 U/ml penicillin, and […] (complete medium), pretreated with compounds at 10, 2, 0.4, 0.08, 0.016, 0.0032, 0.00064, and 0 μM in duplicate at a final DMSO concentration of 0.1% at 37° C. in a humidified incubator at 5% CO2 for 1 hour, then stimulated with 50 ng/ml recombinant human IL-1β (Endogen) for 18 hours.

A short description of series [2]: Cardiovascular and respiratory function in anesthetized dogs. It is filed as in vivo. The following applies: anesthetized Beagle dogs, 400, 800, and 1,200 mg/kg/day ascending doses, infusion through the jugular vein, compared to vehicle control. As to the method:
The effects of 3-(3,4-dimethoxy-phenyl)-3-(1-oxo-1,3-dihydro-isoindol-2-yl)-propionamide on cardiovascular and respiratory function are investigated in anesthetized dogs. Two groups of Beagle dogs (2/sex/group) are used. One group receives three doses of vehicle only and the other receives three ascending doses of 3-(3,4-dimethoxy-phenyl)-3-(1-oxo-1,3-dihydro-isoindol-2-yl)-propionamide (400, 800, and 1,200 mg/kg/day). In all cases, doses of 3-(3,4-dimethoxy-phenyl)-3-(1-oxo-1,3-dihydro-isoindol-2-yl)-propionamide or vehicle are successively administered via infusion through the jugular vein separated by intervals of at least 30 minutes.

A further series deals with PDE4. Briefly: Inhibition of PDE4 enzyme purified from U937 human monocytic cells. It is filed as biochemical. The following applies: 1 μM cAMP, 30 min at 30° C. On the procedure:
PDE4 enzyme was purified from U937 human monocytic cells by gel filtration chromatography as previously described (Muller et al. 1998, Bioorg. & Med Chem Lett 8:2669-2674). Phosphodiesterase reactions were carried out in 50 mM Tris HCl pH 7.5, 5 mM MgCl2, 1 μM cAMP, 10 nM [^311)-cAMP for 30 min at 30° C., terminated by boiling, treated with 1 mg/ml snake venom, and separated using AG-1×S ion exchange resin (BioRad) as described (Muller et al. 1998, Bioorg. & Med Chem Lett 8:2669-2674). Reactions consumed less than 15% of available substrate.

Series [3] concerns TNF-α production from human PBMC. Briefly: LPS-induced TNF-α production from human PBMC. The series is classed as cell-based. The following applies: LPS 100 ng/ml, compound added 1 hour before LPS, 18-20 hours, ELISA. On the procedure: Inhibition of TNF-α production following LPS-stimulation of human PBMC and human whole blood by 3-(3,4-dimethoxy-phenyl)-3-(1-oxo-1,3-dihydro-isoindol-2-yl)-propionamide is investigated in vitro (Muller et al., Bioorg. Med. Chem. Lett. 9:1625-1630, 1999). The IC50's of 3-(3,4-dimethoxy-phenyl)-3-(1-oxo-1,3-dihydro-isoindol-2-yl)-propionamide for inhibiting production of TNF-α following LPS-stimulation of PBMC and human whole blood is measured.
For example, 3-(3,4-dimethoxy-phenyl)-3-(1-oxo-1,3-dihydro-isoindol-2-yl)-propionamide was tested for the ability to inhibit LPS-induced TNF-α production from human PBMC as previously described (Muller et al. 1996, J. Med. Chem. 39:3238). PBMC from normal donors were obtained by Ficoll Hypaque (Pharmacia, Piscataway, N.J., USA) density centrifugation. Cells were cultured in RPMI (Life Technologies, Grand Island, N.Y., USA) supplemented with 10% AB±human serum (Gemini Bio-products, Woodland, Calif., USA), 2 mM L-glutamine, 100 U/ml penicillin, and 100 μg/ml streptomycin (Life Technologies).
PBMC (2×10^5 cells) were plated in 96-well flat-bottom Costar tissue culture plates (Corning, N.Y., USA) in triplicate. Cells were stimulated with LPS (Sigma, St. Louis, Mo., USA) at 100 ng/ml in the absence or presence of compounds. […]

In the next series the test system is spinal cord contusion. Particulars: cited from earlier work.

Regarding `COc1ccc(C(CC(N)=O)N2Cc3ccccc3C2=O)cc1OC` (stereo not shown) [3-(3,4-dimethoxy-phenyl)-3-(1-oxo-1,3-dihydro-isoindol-2-yl)-propionamide], the IC50 is 16 µM in series [1], 15 µM in the series on PDE4 and 21 µM in series [3]. The “cardiovascular and respiratory changes” value in series [2] is “minimal at all doses”.

As to `COc1ccc(C2CNC(=O)C2)cc1OC1CCCC1` (stereo not shown) [rolipram], the locomotion result with spinal cord contusion (combination of rolipram with db-cAMP) was “improved locomotion”. Also, in the series on spinal cord contusion (combined with Schwann cell grafts), the “axon sparing and myelination” value was “promoted significant supraspinal and proprioceptive axon sparing and myelination”. Further, in the series on spinal cord contusion (rolipram alone), the “cAMP levels after spinal cord contusion” value was “prevented the decrease of cAMP levels”.
